Source: US20230382984A1, “TRABD PROTEIN, AND MONOCLONAL ANTIBODY THEREOF, AND ISOLATION, AMPLIFICATION AND USE THEREOF” (priority 2022, published 2023)

Experiments:
[1] = tested on: TRABD protease; details: cited from earlier work; for function of TRABD protein: divalent metal ion complexing agent; for TRABD protease activity: early study, metal ions
[2] = biological target: T1, TRABD2A protein (Homo sapiens, UniProt Q86V40); details: different view; metal ions; cited from earlier work
T1 sequence (Q86V40 22-480): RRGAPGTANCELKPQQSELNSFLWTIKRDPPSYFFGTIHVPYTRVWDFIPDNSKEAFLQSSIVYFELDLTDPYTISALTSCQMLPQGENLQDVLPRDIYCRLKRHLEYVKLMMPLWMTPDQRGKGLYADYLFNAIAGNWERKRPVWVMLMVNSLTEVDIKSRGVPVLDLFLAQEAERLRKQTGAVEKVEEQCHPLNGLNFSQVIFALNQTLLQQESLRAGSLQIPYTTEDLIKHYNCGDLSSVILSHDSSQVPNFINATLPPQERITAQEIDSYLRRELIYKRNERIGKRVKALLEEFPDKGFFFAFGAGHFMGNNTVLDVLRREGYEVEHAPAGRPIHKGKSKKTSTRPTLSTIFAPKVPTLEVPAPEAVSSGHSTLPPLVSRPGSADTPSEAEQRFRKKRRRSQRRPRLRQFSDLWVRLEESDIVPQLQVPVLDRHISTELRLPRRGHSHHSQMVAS

[3] = tested on: CD8^+ T cells and target cells; test: CCK8 and flow cytometry detection of toxic effect of metal cations; details: concentration of 20 μM
Source text: FIG. 4A show the effect on the target cell killing ability of CD8^+ T cells after metal cofactor intervention of TRABD2A; • A: detection of the killing activity of the CD8^+ T cells on target cells CEM.T2 when metal cations Co^2+, Ni^2+ and Mn^2+ at different concentrations act on CD8^+ T cells; • B: detection of the killing activity of the CD8^+ T cells on target cells MGC when metal cations Co^2+, Ni^2+ and Mn^2+ at different concentrations act on CD8^+ T cells; • C: CCK8 and flow cytometry detection of the toxic effect of metal cations Co^2+, Ni^2+ and Mn^2+ at different concentrations on target cells.

[4] = biological target: T2, TRABD2A metalloprotease on CD8^+ T cells (Homo sapiens, UniProt Q86V40); test: Killing activity of CD8+ T cells on target cells after metal cofactor intervention of TRABD2A; assay type: cell-based; details: metal cations at different concentrations acting on CD8+ T cells; target cells CEM.T2 and MGC; FIG. 4A
T2 construct: action of metal ions Mn^2+, Co^2+ and Ni^2+ on TRABD2A metalloprotease on CD8^+ T cells; endogenous in cells
T2 sequence (Q86V40 22-480): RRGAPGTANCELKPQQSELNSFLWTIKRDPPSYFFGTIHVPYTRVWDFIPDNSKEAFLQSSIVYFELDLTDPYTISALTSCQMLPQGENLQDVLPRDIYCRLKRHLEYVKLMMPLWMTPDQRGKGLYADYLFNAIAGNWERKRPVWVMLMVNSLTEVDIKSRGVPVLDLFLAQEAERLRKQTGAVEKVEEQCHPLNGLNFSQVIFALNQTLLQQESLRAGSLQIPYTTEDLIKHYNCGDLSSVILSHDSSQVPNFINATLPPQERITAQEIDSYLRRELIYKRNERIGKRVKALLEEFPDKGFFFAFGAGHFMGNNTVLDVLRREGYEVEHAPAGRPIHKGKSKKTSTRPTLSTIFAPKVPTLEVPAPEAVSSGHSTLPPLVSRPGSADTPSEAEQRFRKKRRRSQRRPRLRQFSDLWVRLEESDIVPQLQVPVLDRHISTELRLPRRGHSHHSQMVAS
Source text: Since TRABD2A is a metalloprotease and its activity is affected by metal ions, and the metal ion Mn^2+ having an accelerating effect on TRABD2A metalloprotease activity and metal ions Co^2+ and Ni^2+ having an inhibiting effect were examined. The effect of the TRABD2A protein on CD8^+ T cells was observed by the action of metal ions Mn^2+, Co^2+ and Ni^2+ on TRABD2A metalloprotease on CD8^+ T cells.

| SMILES | function of TRABD protein [1] | activity of the TRABD2A protein [2] | TRABD protease activity [1] | other results |
| --- | --- | --- | --- | --- |
| c1cnc2c(c1)ccc1cccnc12 [1,10-phenanthroline] | inhibited | – | – | – |
| [Ca+2] [Ca^2+] | – | independent | – | – |
| [Co+2] [Co^2+] | – | inhibited | increase | toxic effect on CD8^+ T cells and target cells [3]: little toxic effect; tumor killing ability of CD8^+ T cells [4]: enhanced |
| [Cu+2] [Cu^2+] | – | – | opposite effect | – |
| O=C(O)CN(CCN(CC(=O)O)CC(=O)O)CC(=O)O [EDTA] | inhibited | – | – | – |
| [Fe+3] [Fe^3+] | – | independent | – | – |
